# Columns and labels:
# [1] = system: Puccinia Recondita f. sp. Tritici; assay: Puccinia recondita f. sp. tritici / wheat / leaf disc curative (brown rust); assay type: in vivo; conditions: foliar, 200 ppm in the applied formulation, wheat leaf segments cv. Kanzler, curative (applied 1 day after inoculation), assessed 6 to 8 days after application, read-out: disease control compared to untreated control leaf disks
# Description: (§1) Leaf disks or leaf segments of various plant species are cut from plants grown in a greenhouse. The cut leaf disks or segments are placed in multiwell plates (24-well format) onto water agar. The leaf disks are sprayed with a test solution before (preventative) or after (curative) inoculation. Compounds to be tested are prepared as DMSO solutions (max. 10 mg/ml) which are diluted to the appropriate concentration with 0.025% Tween20 just before spraying. The inoculated leaf disks or segments are incubated under defined conditions (temperature, relative humidity, light, etc.) according to the respective test system. A single evaluation of disease level is carried out 3 to 14 days after inoculation, depending on the pathosystem. Percent disease control relative to the untreated check leaf disks or segments is then calculated.
# Wheat leaf segments cv. Kanzler are placed on agar in multiwell plates (24-well format). The leaf segments are then inoculated with a spore suspension of the fungus. Plates were stored in darkness at 19° C. and 75% relative humidity. The formulated test compound diluted in water was applied 1 day after inoculation. The leaf segments were incubated at 19° C. and 75% relative humidity under a light regime of 12 hours light/12 hours darkness in a climate cabinet and the activity of a compound was assessed as percent disease control compared to untreated when an appropriate level of disease damage appears in untreated check leaf segments (6 to 8 days after application).
# The following compounds at 200 ppm in the applied formulation give at least 80% disease control in this test when compared to untreated control leaf disks under the same conditions, which show extensive disease development.
# [2] = system: Puccinia Recondita f. sp. Tritici; assay: Puccinia recondita f. sp. tritici / wheat / leaf disc preventative (brown rust); assay type: in vivo; conditions: foliar, 200 ppm in the applied formulation, wheat leaf segments cv. Kanzler, preventative (inoculated 1 day after application), assessed 7 to 9 days after application, read-out: disease control compared to untreated control leaf disks
# Description: as §1, with “calculated. Wheat leaf segments cv. Kanzler were placed on agar in multiwell plates (24-well format) and sprayed with the formulated test compound diluted in water. The leaf disks were inoculated with a spore suspension of the fungus 1 day after application. The inoculated leaf segments were incubated at 19° C. and 75% relative humidity (rh) under a light regime of 12 hours light/12 hours darkness in a climate cabinet and the activity of a compound was assessed as percent disease control compared to untreated when an appropriate level of disease damage appears in untreated check leaf segments (7 to 9 days after application). The following compounds at 200 ppm in the applied formulation give at least 80% disease control in this test when compared to untreated control leaf disks under the same conditions, which show extensive disease development.” for “calculated.”
# [3] = system: Glomerella Lagenarium (Colletotrichum Lagenarium); assay: Glomerella lagenarium (Colletotrichum lagenarium) liquid culture / cucumber / preventative (anthracnose); assay type: cell-based; conditions: Colletotrichum orbiculare; 20 ppm in the applied formulation; liquid culture in PDB, 24° C., 3 to 4 days after application; read-out: disease control compared to untreated control (inhibition of growth measured photometrically)
# Description: Mycelia fragments or conidia suspensions of a fungus prepared either freshly from liquid cultures of the fungus or from cryogenic storage, are directly mixed into nutrient broth. DMSO solutions of the test compound (max. 10 mg/ml) are diluted with 0.025% Tween20 by a factor of 50 and 10 μl of this solution is pipetted into a microtiter plate (96-well format). The nutrient broth containing the fungal spores/mycelia fragments is then added to give an end concentration of the tested compound. The test plates are incubated in the dark at 24° C. and 96% relative humidity. The inhibition of fungal growth is determined photometrically after 2 to 7 days, depending on the pathosystem, and percent antifungal activity relative to the untreated check is calculated.
# Conidia of the fungus from cryogenic storage are directly mixed into nutrient broth (PDB—potato dextrose broth). After placing a (DMSO) solution of test compound into a microtiter plate (96-well format), the nutrient broth containing the fungal spores is added. The test plates are incubated at 24° C. and the inhibition of growth is measured photometrically 3 to 4 days after application.
# The following compounds at 20 ppm in the applied formulation give at least 80% disease control in this test when compared to untreated control under the same conditions, which show extensive disease development.
Structure (SMILES),melting point [°C],pest or weed control at 200 ppm [1] [%],pest or weed control at 200 ppm [2] [%],inhibition at 20 ppm [3] [%]
"CCOC(=O)Nc1ccc(-c2noc(C(F)(F)F)n2)cc1F [Compound 1.9, ethyl N-[2-fluoro-4-[5-(trifluoromethyl)-1,2,4-oxadiazol-3-yl]phenyl]carbamate]",86 to 91,≥ 80,≥ 80,≥ 80
"CC(=O)Nc1ccc(-c2noc(C(F)(F)F)n2)cc1C [Compound 1.3, N-[2-methyl-4-[5-(trifluoromethyl)-1,2,4-oxadiazol-3-yl]phenyl]acetamide]",153 to 179,≥ 80,≥ 80,≥ 80
